Test results published in ChEMBL document CHEMBL6134930, “Discovery of AB801, a Potent and Selective Inhibitor of AXL Receptor Tyrosine Kinase for Use in Cancer Therapy” (J Med Chem, 2025).
The source made the active and inactive calls. The calls are words filed in the database; no cut-off is given here.

Legend:
Cytochrome P450 2C8 = target: T1, Cytochrome P450 2C8 (Homo sapiens, UniProt P10632); test: Inhibition of CYP2C8 (unknown origin) measured after 30 mins; assay type: ADME
T1 sequence (P10632 whole entry): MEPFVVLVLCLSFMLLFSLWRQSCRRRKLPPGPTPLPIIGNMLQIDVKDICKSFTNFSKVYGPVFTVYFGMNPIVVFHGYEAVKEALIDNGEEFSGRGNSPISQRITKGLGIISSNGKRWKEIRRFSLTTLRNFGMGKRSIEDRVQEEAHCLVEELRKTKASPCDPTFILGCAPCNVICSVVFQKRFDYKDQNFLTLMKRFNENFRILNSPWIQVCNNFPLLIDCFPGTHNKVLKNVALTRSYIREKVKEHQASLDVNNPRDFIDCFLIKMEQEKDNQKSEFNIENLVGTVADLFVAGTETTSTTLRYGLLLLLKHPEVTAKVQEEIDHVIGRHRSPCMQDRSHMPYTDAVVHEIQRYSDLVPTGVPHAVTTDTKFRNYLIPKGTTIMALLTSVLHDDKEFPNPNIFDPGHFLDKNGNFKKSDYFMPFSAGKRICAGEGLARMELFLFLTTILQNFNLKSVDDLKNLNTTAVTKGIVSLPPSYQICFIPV

[1] = Half life in human (healthy individuals) at 10 mg, single oral dose; assay type: ADME; details: in vivo
[2] = Selectivity ratio, ratio of Ki for TYRO3 (unknown origin) to Ki for AXL (unknown origin)
CYP2B6 = target: T2, CYP2B6 (Homo sapiens, UniProt P20813); test: Time dependent inhibition of CYP2B6 (unknown origin) at 30 uM measured after 30 mins relative to control; assay type: ADME; details: read-out: TDI
T2 sequence (P20813 whole entry): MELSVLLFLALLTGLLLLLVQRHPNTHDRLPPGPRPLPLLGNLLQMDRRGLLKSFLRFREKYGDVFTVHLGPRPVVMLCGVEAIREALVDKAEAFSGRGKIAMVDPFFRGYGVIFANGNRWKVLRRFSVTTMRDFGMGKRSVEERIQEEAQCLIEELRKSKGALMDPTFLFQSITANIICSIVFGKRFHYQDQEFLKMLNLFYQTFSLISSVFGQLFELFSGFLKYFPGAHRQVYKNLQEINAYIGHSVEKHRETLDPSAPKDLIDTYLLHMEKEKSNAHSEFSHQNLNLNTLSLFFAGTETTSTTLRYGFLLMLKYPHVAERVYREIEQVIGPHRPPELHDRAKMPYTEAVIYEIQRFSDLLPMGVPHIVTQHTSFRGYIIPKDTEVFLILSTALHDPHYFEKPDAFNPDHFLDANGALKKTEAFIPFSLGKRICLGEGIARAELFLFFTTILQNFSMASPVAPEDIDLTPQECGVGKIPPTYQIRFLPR

Cytochrome P450 1A2 = target: T3, Cytochrome P450 1A2 (Homo sapiens, UniProt P05177); test: Inhibition of CYP1A2 (unknown origin) measured after 30 mins; assay type: ADME
T3 sequence (P05177 whole entry): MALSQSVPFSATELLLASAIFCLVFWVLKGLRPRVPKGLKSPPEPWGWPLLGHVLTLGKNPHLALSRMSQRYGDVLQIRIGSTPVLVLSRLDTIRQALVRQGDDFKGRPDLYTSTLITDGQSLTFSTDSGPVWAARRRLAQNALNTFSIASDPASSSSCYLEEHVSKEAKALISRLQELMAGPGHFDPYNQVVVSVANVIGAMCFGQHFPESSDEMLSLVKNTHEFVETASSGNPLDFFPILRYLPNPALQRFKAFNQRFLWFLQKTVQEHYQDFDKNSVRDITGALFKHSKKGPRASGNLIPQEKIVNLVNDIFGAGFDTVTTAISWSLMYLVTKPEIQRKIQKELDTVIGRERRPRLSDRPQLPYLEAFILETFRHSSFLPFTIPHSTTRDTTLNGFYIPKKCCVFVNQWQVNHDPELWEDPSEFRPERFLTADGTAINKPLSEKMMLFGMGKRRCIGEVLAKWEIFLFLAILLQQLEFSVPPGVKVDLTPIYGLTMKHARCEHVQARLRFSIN

CYP2C9 = CYP2C9 (Homo sapiens, UniProt P11712); test: Time dependent inhibition of CYP2C9 (unknown origin) at 30 uM measured after 30 mins relative to control; assay type: ADME; details: read-out: TDI
CYP2C19 = CYP2C19 (Homo sapiens, UniProt P33261); test: Time dependent inhibition of CYP2C19 (unknown origin) at 30 uM measured after 30 mins relative to control; assay type: ADME; details: read-out: TDI
[3] = target: T4, Tyrosine-protein kinase receptor UFO (Homo sapiens, UniProt P30530); test: Inhibition of autophosphorylation AXL (unknown origin) expressed in HEK293 cells assessed as NanoLuc activity associated with phosphorylated proteins measured after 1 hr incubation by intracellular pAXL-ELISA; assay type: cell-based
T4 sequence (P30530 whole entry): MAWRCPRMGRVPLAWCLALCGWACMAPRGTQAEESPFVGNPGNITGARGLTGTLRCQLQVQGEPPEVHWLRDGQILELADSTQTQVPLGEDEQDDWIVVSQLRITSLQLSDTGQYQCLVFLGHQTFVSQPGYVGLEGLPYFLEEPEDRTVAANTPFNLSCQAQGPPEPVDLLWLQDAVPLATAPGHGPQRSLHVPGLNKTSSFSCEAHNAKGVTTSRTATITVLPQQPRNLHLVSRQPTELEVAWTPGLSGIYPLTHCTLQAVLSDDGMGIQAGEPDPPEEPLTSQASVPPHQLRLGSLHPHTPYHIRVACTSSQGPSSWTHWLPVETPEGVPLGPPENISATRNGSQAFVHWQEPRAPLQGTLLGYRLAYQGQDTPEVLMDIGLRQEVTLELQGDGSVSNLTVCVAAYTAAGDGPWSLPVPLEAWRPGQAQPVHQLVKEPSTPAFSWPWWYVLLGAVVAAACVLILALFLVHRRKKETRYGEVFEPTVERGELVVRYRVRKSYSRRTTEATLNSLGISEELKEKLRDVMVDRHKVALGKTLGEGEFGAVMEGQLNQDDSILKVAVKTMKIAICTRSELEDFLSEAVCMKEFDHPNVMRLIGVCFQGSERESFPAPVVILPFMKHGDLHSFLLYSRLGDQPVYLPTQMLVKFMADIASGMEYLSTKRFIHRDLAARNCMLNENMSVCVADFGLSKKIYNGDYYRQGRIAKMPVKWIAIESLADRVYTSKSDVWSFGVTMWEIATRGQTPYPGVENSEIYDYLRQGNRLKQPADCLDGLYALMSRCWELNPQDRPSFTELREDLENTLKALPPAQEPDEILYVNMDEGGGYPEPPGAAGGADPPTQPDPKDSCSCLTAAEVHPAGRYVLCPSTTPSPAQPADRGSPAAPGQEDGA

[4] = AUC (0 to 24 hrs) in human (healthy individuals) at 90 mg, single oral dose; assay type: ADME; details: in vivo
[5] = AUC (0 to 120 hrs) in human (healthy individuals) at 90 mg, single oral dose; assay type: ADME; details: in vivo
[6] = Clearance in Beagle dog at 0.5 mg/kg, iv measured up to 24 hrs by LC-MS/MS analysis; assay type: ADME, organism-based, Canis lupus familiaris; details: in vivo
786-0 = test: Anti-tumor activity against human 786-0 cells xenografted in mouse model assessed as tumor growth inhibition at 10 mg/kg, po once daily for 15 days; assay type: functional, organism-based; details: time 15.0 day

Sequence of CYP2C19 (P33261 whole entry): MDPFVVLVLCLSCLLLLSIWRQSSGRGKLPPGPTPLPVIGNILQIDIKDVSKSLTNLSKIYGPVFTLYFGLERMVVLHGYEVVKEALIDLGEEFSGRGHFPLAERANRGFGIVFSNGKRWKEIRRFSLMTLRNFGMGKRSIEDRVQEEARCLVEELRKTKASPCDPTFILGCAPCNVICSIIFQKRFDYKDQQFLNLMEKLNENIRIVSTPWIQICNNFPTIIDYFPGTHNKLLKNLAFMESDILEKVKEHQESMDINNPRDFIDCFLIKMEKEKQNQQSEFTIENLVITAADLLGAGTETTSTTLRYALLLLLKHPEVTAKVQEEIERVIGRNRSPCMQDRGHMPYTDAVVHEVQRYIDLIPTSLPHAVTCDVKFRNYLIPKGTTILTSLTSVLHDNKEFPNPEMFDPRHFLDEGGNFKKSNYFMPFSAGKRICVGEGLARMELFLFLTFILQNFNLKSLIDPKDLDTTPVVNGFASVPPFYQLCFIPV
Sequence of CYP2C9 (P11712 whole entry): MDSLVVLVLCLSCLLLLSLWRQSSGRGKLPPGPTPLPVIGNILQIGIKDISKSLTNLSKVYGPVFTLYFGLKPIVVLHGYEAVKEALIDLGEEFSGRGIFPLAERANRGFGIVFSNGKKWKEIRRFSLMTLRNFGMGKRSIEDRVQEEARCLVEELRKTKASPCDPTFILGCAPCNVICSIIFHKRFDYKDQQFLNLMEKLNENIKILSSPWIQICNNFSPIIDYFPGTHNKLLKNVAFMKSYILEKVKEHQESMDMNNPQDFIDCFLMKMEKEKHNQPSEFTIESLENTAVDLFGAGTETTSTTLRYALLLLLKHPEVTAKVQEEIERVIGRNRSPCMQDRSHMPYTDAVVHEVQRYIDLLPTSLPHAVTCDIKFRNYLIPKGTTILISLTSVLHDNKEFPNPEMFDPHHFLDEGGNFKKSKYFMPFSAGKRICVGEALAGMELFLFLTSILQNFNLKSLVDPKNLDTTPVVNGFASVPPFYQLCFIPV

In the case of `Cc1cccnc1-c1ccc(-c2n[nH]c3ncc(-c4ccc5c(c4)CC[C@@H](N4C6COCC4C6)CC5)cc23)nc1`, the IC50 (Cytochrome P450 2C8) is reported as 17 µM, the half-life [1] is reported as 70 h and the Ratio Ki [2] is reported as 1400. For the same compound, the inhibition at 0.5 h, 30 µM (CYP2B6) was 12%, the IC50 (Cytochrome P450 1A2) was > 100 µM and the inhibition at 0.5 h, 30 µM (CYP2C9) was 10%. For the same compound, the inhibition at 0.5 h, 30 µM (CYP2C19) was 4.1%, the IC50 [3] was 0.069 µM and the AUC(0-t) [4] was 707 ng·h/mL. For the same compound, the AUC(0-t) [5] was 2090 ng·h/mL, the clearance [6] was 25 mL/min/kg and the Activity (786-0) was “inactive”.
